Reference: US20250059193A1, “POLYMORPHIC AND SALT FORMS OF (1S,3S)-N1-(5-(PENTAN-3-YL)PYRAZOLO[1,5-A]PYRIMIDIN-7-YL) CYCLOPENTANE-1,3-DIAMINE” (Kronos Bio, Inc., priority 2021, published 2025)
Where a name gives a salt, the structure may show the parent alone.

What was measured:
Format in all cases: physicochemical
[1] = Accelerated aging conditions (AAC; 40° C./75% RH), solids reanalyzed by XRPD; details: solid form by XRPD
Protocol: (§1) Next, the resulting solids were combined with another solvent (acetonitrile (AcN) or ethanol) and the resulting mixtures were stirred at room temperature (RT). After stirring, the solids were isolated by centrifugation and part of the solids was harvested on a 96-well plate and dried under ambient conditions. The remaining part of the solids was dried under vacuum (5 mbar [i.e. 500 Pa], RT, 18 h). All solids were analyzed by XRPD, subjected to accelerated aging conditions (AAC; 40° C./75% RH) and reanalyzed by XRPD. The procedure and resulting tosylate forms are shown in the table below, wherein forms were identified by XRD.
as §1, with “chloroform)” for “ethanol)”, “mbar,” for “mbar [i.e. 500 Pa],”, “AAC (accelerated” for “accelerated”, “conditions;” for “conditions (AAC;”, “XRPD.” for “XRPD. The procedure and resulting tosylate forms are shown in the table below, wherein forms were identified by XRD.”
(§2) Next, the resulting solids were combined with another solvent (AcN, diethyl ether, or toluene), and the resulting mixtures were stirred at room temperature (RT). After stirring, the solids were isolated by centrifugation and part of the solids was harvested on a 96-well plate and dried under ambient conditions. The remaining part of the solids was dried under vacuum (5 mbar, RT, 18 h). All solids were analyzed by XRPD, subjected to AAC (40° C./75% RH) and reanalyzed by XRPD.
as §2, with “(1,4-dioxane, acetonitrile, ethyl acetate),” for “(AcN, diethyl ether, or toluene),”
as §2, with “(acetonitrile or” for “(AcN,”, “ether),” for “ether, or toluene),”

[2] = pH of the solubility samples
Protocol: The pH was recorded with a Metrohm 913 PH meter, equipped with a WTW SenTix® MIC-B electrode.
(§3) FaSSGF is Fasted State Simulated Gastric Fluid. Solubility is reported in mg/mL.

[3] = Solubility of free base and salt forms; details: for solubility compared with the free base: physiological conditions, salt forms versus free base; for solubility at 24 h: thermodynamic from solid
Source text: as §3

[4] = Repeat XRD of amorphous free base from slow evaporation of ethanol solution; details: product of slow evaporation of ethanol solution of form I
Protocol: Initial attempts to generate an amorphous form of the free base were conducted by slow evaporation of a form I solution. In particular, form I was dissolved in ethanol according to the chart below and then allowed to slowly evaporate.

[5] = Medium 100 mM phosphate, pH Buffer 6.8

Row | 3 days AAC (XRPD form) [1] | pH (30 min) [2, 5] | pH (2 h) [2, 5] | pH (24 h) [2, 5] | pH (30 min) ([2]; Medium FaSSGF, pH Buffer 1.6) | pH (2 h) ([2]; Medium FaSSGF, pH Buffer 1.6) | pH (24 h) ([2]; Medium FaSSGF, pH Buffer 1.6) | Solubility (2 h) [3, 5] [mg/mL] | Solubility (24 h) [3, 5] [mg/mL] | Solubility (2 h) ([3]; Medium FaSSGF, pH Buffer 1.6) [mg/mL] | Solubility (24 h) ([3]; Medium FaSSGF, pH Buffer 1.6) [mg/mL] | solubility compared with the free base [3] | SMILES | also measured
1 | Form II | 4.1 | 7.4 | 7.5 | 1.6 | 1.7 | 1.7 | 28.9 | 42.2 | >380 | >380 | increased | CCC(CC)c1cc(N[C@H]2CC[C@H](N)C2)n2nccc2n1 [Camsylate II] | 5 days AAC (XRPD form) [1]: Form III
2 | – | 4.5 | 6.7 | 6.7 | 4.4 | 1.6 | 1.6 | >137 | >137 | >127 | >127 | increased | CCC(CC)c1cc(N[C@H]2CC[C@H](N)C2)n2nccc2n1 [Citrate I] | –
3 | – | 4.5 | 7.2 | 7.3 | 4.1 | 1.6 | 1.7 | >107 | >107 | >48 | >48 | increased | CCC(CC)c1cc(N[C@H]2CC[C@H](N)C2)n2nccc2n1 [Fumarate III] | –
4 | – | 2.1 | 6.7 | 6.8 | 1.6 | 1.6 | 1.5 | 55.5 | 38.1 | >392 | >392 | increased | CCC(CC)c1cc(N[C@H]2CC[C@H](N)C2)n2nccc2n1 [Oxalate III] | –
5 | – | 2.7 | 6.8 | 7.0 | 1.0 | 1.9 | 2.1 | 8.7 | 2.92 | >129 | >129 | increased | CCC(CC)c1cc(N[C@H]2CC[C@H](N)C2)n2nccc2n1 [Tosylate III] | –
6 | Form III | – | – | – | – | – | – | – | – | – | – | – | CCC(CC)c1cc(N[C@H]2CC[C@H](N)C2)n2nccc2n1 [fumarate salt] | –

Further lines, the compound ahead of its results:

Row | SMILES | 3 days AAC (XRPD form) [1] | pH (30 min) [2, 5] | pH (2 h) [2, 5] | pH (24 h) [2, 5] | pH (30 min) ([2]; Medium FaSSGF, pH Buffer 1.6) | pH (2 h) ([2]; Medium FaSSGF, pH Buffer 1.6) | pH (24 h) ([2]; Medium FaSSGF, pH Buffer 1.6) | Solubility (2 h) [3, 5] [mg/mL] | Solubility (24 h) [3, 5] [mg/mL] | Solubility (2 h) ([3]; Medium FaSSGF, pH Buffer 1.6) [mg/mL] | Solubility (24 h) ([3]; Medium FaSSGF, pH Buffer 1.6) [mg/mL] | solubility compared with the free base [3] | also measured
7 | CCC(CC)c1cc(N[C@H]2CC[C@H](N)C2)n2nccc2n1 [Free base I, (1S,3S)—N^1—(5-(pentan-3-yl)pyrazolo[1,5-α]pyrimidin-7-yl)cyclopentane-1,3-diamine] | – | – | – | – | – | – | – | – | – | – | – | – | pH (24 h) ([2]; Medium 50 mM phosphate, pH Buffer 1.6 as printed): 9.4; pH (24 h) ([2]; Medium FaSSGF, pH Buffer 7.4 as printed): 10.2; pH (24 h) ([2]; Medium Water): 10.1; solubility at 24 h ([3]; 50 mM phosphate buffer, pH 1.6, aqueous buffer, Medium 50 mM phosphate, pH Buffer 1.6 as printed): 9.8 mg/mL; solubility at 24 h ([3]; FaSSGF (Fasted State Simulated Gastric Fluid), pH 7.4, fassgf or other biorelevant, Medium FaSSGF, pH Buffer 7.4 as printed): 5.9 mg/mL; solubility ([3]; water): 5.9 mg/mL; solubility at 24 h ([3]; water, Medium Water): 5.1 mg/mL
8 | CCC(CC)c1cc(N[C@H]2CC[C@H](N)C2)n2nccc2n1 [Fumarate II] | Form III | – | – | – | – | – | – | – | – | – | – | – | –
9 | CCC(CC)c1cc(N[C@H]2CC[C@H](N)C2)n2nccc2n1 [Fumarate IV] | Form III | – | – | – | – | – | – | – | – | – | – | – | –
10 | CCC(CC)c1cc(N[C@H]2CC[C@H](N)C2)n2nccc2n1 [Oxalate II] | Form II | – | – | – | – | – | – | – | – | – | – | – | 5 days AAC (XRPD form) [1]: Form II
11 | CCC(CC)c1cc(N[C@H]2CC[C@H](N)C2)n2nccc2n1 [Tosylate amorphous] | Form II | – | – | – | – | – | – | – | – | – | – | – | 5 days AAC (XRPD form) [1]: Form II
12 | CCC(CC)c1cc(N[C@H]2CC[C@H](N)C2)n2nccc2n1 [amorphous product] | – | – | – | – | – | – | – | – | – | – | – | – | XRD of amorphous product after about 45 minutes [4]: began crystalizing
